In patent US11040041B2, “Method of treating pulmonary arterial hypertension” (Cipla (UK) Limited, priority 2015, dated 2021):

Tests used:
[1] = test system: rats with monocrotaline induced pulmonary arterial hypertension; experiment: Hemodynamic evaluation in anesthetized rats treated with monocrotaline to induce pulmonary arterial hypertension; assay type: in vivo, Sprague-Dawley rats; conditions: for RV/LV + S: Fulton's Index; for RV/LV + S / Body Weight / HR / HW/BW / Heart Wt / LV Wt / Lung Wt / MAP / Mean PAP / RV Wt / RV/BW / Systolic PAP: day 28 after monocrotaline, mean ± SEM
Description: The studies were conducted for Hemodynamic Evaluation of Paliperidone palmitate in Anesthetized Sprague Dawley Rats Treated with Monocrotaline to Induce Pulmonary Arterial Hypertension. Sildenafil was used as an internal control to compare the effects of Paliperidone palmitate.
Adult male Sprague-Dawley rats (287±4 g) were obtained from Charles River Laboratories (Raleigh, N.C.). Animals housed individually in a temperature/humidity controlled room with 12-hour light/dark cycles, had free access to water and food and were acclimated for one week prior to the study. Rats were randomly assigned (n=10 per group). Rats in groups 1 and 2 served as healthy controls; the remaining rats were injected subcutaneously on Day 0 with 60 mg/kg body weight monocrotaline, the toxic alkaloid of Crotalaria spectabilis, (dissolved in DMSO at a concentration of 60 mg/ml, Sigma Aldrich, St. Louis, Mo.). On days 1-21, the rats were dosed via oral gavage (2 ml/kg) with vehicle (PBS), or the test compound—Paliperidone palmitate. Rats were weighed daily, and the dosages of test compound adjusted appropriately.
Monocrotaline (MCT) is an 11-membered macrocyclic pyrrolizidine plant alkaloid. A single SQ injection into rats results in hepatic generation of toxic metabolite—MCT pyrrole. Phase II metabolism of MCT is through glutathione conjugation. Reactive metabolite is transported to lungs, injuring pulmonary vasculature.
The effects of sildenafil and Paliperidone palmitate were evaluated in rats with monocrotaline induced pulmonary arterial hypertension. Male Sprague-Dawley rats were orally administered vehicle, Paliperidone palmitate (1.25 or 3.75 mg/kg, once every day for 28 days starting on Day 1, or sildenafil (30 mg/kg, administered twice daily) (n=10 in each group). Rats received a single injection of monocrotaline (60 mg/kg, s.c.) on Study Day 1. On the twenty-eighth day following monocrotaline dosing, the rats were anesthetized with ketamine/xylazine for terminal monitoring of pulmonary and systemic arterial pressures along with heart rate.
The Table 1 gives the study design for the test article and vehicle administrations.

[2] = test system: rats with monocrotaline induced pulmonary arterial hypertension; experiment: as above; assay type: in vivo, Sprague-Dawley rats; conditions: 3.25 mg/kg dosing (so in the source), after 28 days
[3] = Sildenafil 60 mg/kg/day bid oral
[4] = after 28 days, monocrotaline rats
[5] = Paliperidone palmitate 1.25 mg/kg oral once daily
[6] = Paliperidone palmitate 3.75 mg/kg oral once daily

**Q.** How did the “RV/LV + S” value [1, 3] turn out when CCCc1nn(C)c2c(=O)[nH]c(-c3cc(S(=O)(=O)N4CCN(C)CC4)ccc3OCC)nc12 [Sildenafil] was run?
**A.** 0.51 ± 0.03

**Q.** And the “Body Weight” value [1, 3]?
**A.** 0.32 ± 0.01 kg

**Q.** And the HR [1, 3]?
**A.** 278 ± 21 bpm

**Q.** And the HW/BW [1, 3]?
**A.** 3.89 ± 0.17

**Q.** What about the “Heart Wt” value [1, 3] of the same compound?
**A.** 1.24 ± 0.02 g

**Q.** And the “LV Wt” value [1, 3]?
**A.** 0.74 ± 0.02 g

**Q.** What about the “Lung Wt” value [1, 3] of the same compound?
**A.** 2.36 ± 0.13 g

**Q.** What about the MAP [1, 3] of the same compound?
**A.** 69 ± 5 mm Hg

**Q.** And the “Mean PAP” value [1, 3]?
**A.** 38 ± 6 mm Hg

**Q.** What about the “RV Wt” value [1, 3] of the same compound?
**A.** 0.38 ± 0.02 g

**Q.** And the RV/BW [1, 3]?
**A.** 1.19 ± 0.09

**Q.** What about the “Systolic PAP” value [1, 3] of the same compound?
**A.** 46 ± 7 mm Hg

**Q.** What about the “differences in heart rate compared to vehicle” value [1, 4] of the same compound?
**A.** No substantive differences

**Q.** And the “differences in mean arterial pressure compared to vehicle” value [1, 4]?
**A.** No substantive differences

**Q.** And the “decrease in hypertrophy, RV (wt) corrected by body weight” value ([1]; sildenafil (30 mg/kg twice daily), after 28 days, monocrotaline rats)?
**A.** 21%

**Q.** What about the “right ventricular hypertrophy (RV/LV+S, Fulton's Index) change compared to vehicle” value ([1]; sildenafil cohort (30 mg/kg twice daily), after 28 days, monocrotaline rats) of the same compound?
**A.** −14%

**Q.** What about the “reduction of SPAP compared to the vehicle group” value ([1]; sildenafil group (30 mg/kg twice daily), after 28 days, monocrotaline rats) of the same compound?
**A.** 23%

**Q.** CCCCCCCCCCCCCCCC(=O)OC1CCCn2c1nc(C)c(CCN1CCC(c3noc4cc(F)ccc34)CC1)c2=O (stereo not shown) [Paliperidone palmitate, Hexadecanoic acid 3-[2-[4-(6-fluoro-1,2-benzisoxazol-3-yl)piperidin-1-yl]ethyl]-2-methyl-4-oxo-6,7,8,9-tetrahydro-4H-pyri do[1,2-a]pyrimidin-9-yl ester] was tested. Which “reduction in systolic pulmonary arterial pressure compared to the vehicle group” value [2] did it give?
**A.** 20%

**Q.** What about the “reduction in systolic pulmonary arterial pressure compared to the vehicle group” value ([1]; 1.25 mg/kg dosing, after 28 days, monocrotaline rats) of the same compound?
**A.** 25%

**Q.** And the “right ventricular hypertrophy (RV/LV+S, Fulton's Index) change compared to vehicle” value ([1]; 1.25 mg/kg, after 28 days, monocrotaline rats)?
**A.** −12%

**Q.** And the “right ventricular hypertrophy (RV/LV+S, Fulton's Index) change compared to vehicle” value ([1]; 3.75 mg/kg, after 28 days, monocrotaline rats)?
**A.** −7%

**Q.** And the “RV/LV + S” value [1, 5]?
**A.** 0.52 ± 0.04

**Q.** And the “RV/LV + S” value [1, 6]?
**A.** 0.55 ± 0.06

**Q.** What about the “Body Weight” value [1, 5] of the same compound?
**A.** 0.33 ± 0.02 kg

**Q.** And the HR [1, 5]?
**A.** 253 ± 36 bpm

**Q.** What about the HW/BW [1, 5] of the same compound?
**A.** 3.94 ± 0.22

**Q.** And the “Heart Wt” value [1, 5]?
**A.** 1.28 ± 0.03 g

**Q.** What about the “LV Wt” value [1, 5] of the same compound?
**A.** 0.77 ± 0.01 g

**Q.** And the “Lung Wt” value [1, 5]?
**A.** 2.59 ± 0.13 g

**Q.** What about the MAP [1, 5] of the same compound?
**A.** 54 ± 9 mm Hg

**Q.** What about the “Mean PAP” value [1, 5] of the same compound?
**A.** 34 ± 1 mm Hg

**Q.** What about the “RV Wt” value [1, 5] of the same compound?
**A.** 0.39 ± 0.02 g

**Q.** And the RV/BW [1, 5]?
**A.** 1.22 ± 0.10

**Q.** And the “Systolic PAP” value [1, 5]?
**A.** 45 ± 3 mm Hg

**Q.** And the “Body Weight” value [1, 6]?
**A.** 0.33 ± 0.02 kg

**Q.** And the HR [1, 6]?
**A.** 312 ± 12 bpm

**Q.** And the HW/BW [1, 6]?
**A.** 3.92 ± 0.21

**Q.** And the “Heart Wt” value [1, 6]?
**A.** 1.28 ± 0.06 g

**Q.** And the “LV Wt” value [1, 6]?
**A.** 0.73 ± 0.03 g

**Q.** What about the “Lung Wt” value [1, 6] of the same compound?
**A.** 2.23 ± 0.04 g

**Q.** What about the MAP [1, 6] of the same compound?
**A.** 68 ± 5 mm Hg

**Q.** What about the “Mean PAP” value [1, 6] of the same compound?
**A.** 39 ± 3 mm Hg

**Q.** And the “RV Wt” value [1, 6]?
**A.** 0.40 ± 0.03 g

**Q.** And the RV/BW [1, 6]?
**A.** 1.22 ± 0.12

**Q.** What about the “Systolic PAP” value [1, 6] of the same compound?
**A.** 48 ± 3 mm Hg

**Q.** What about the “differences in heart rate compared to vehicle” value [1, 4] of the same compound?
**A.** No substantive differences

**Q.** What about the “differences in mean arterial pressure compared to vehicle” value [1, 4] of the same compound?
**A.** No substantive differences

**Q.** And the “decrease in hypertrophy, RV (wt) corrected by body weight” value ([1]; at either dose (1.25 or 3.75 mg/kg), after 28 days, monocrotaline rats)?
**A.** 19%

**Q.** And the “development of PAH in the rat monocrotaline (MCT) model” value ([1]; daily oral doses, text says three weeks)?
**A.** prevent the development of PAH
